Measured values as given in patent US20080233208A1, “USE OF ERIANIN IN PREPARING PHARMACEUTICAL FOR TREATING TUMORS” (The Jiang Cell Biomedical Research Co., Ltd., priority 2007, published 2008).

Legend:
[1] = mice bearing Lewis lung cancer, i.p. x 10 qd
Lewis lung cancer = assay: Tumor inhibition in murine model with Lewis lung cancer; type: in vivo, C57BL/6J mice; conditions: for Tumor inhibiting rate / Tumor weight: 19th day after inoculation
[2] = in vivo; cited from earlier work
[3] = test system: human leukemia HL-60 cells; conditions: cited from earlier work
liver cancer of mouse = conditions: cited from earlier work
[4] = compared with 5FU; cited from earlier work
tumor cell strain K256 = conditions: among dihydrobibenzyls and phenanthrenes in Dendrobium chrysotoxum; cited from earlier work

For `O=P1(N(CCCl)CCCl)NCCCO1` (stereo not shown) [CTX, Cyclophosphamide, reference compound], the “General condition of the mice (signs of toxicity)” value [1] was “signs of athrepsia, listlessness, and pilo-erection”, the Tumor inhibiting rate (Lewis lung cancer; 30 mg/kg i.p. x 10 qd) was 63.2% and the Tumor weight (Lewis lung cancer; 30 mg/kg i.p. x 10 qd) was 0.96 ± 0.13.
In the case of `COc1ccc(/C=C\c2cc(OC)c(OC)c(OC)c2)cc1O` [Combretastatin A-4], the LD50 [2] is listed as 500 mg/kg.
For `N.N.[Cl][Pt][Cl]` [DDP, Cisplatin, reference compound], the Tumor inhibiting rate (Lewis lung cancer; 1 mg/kg i.p. x 10 qd) was 51.4% and the Tumor weight (Lewis lung cancer; 1 mg/kg i.p. x 10 qd) was 1.26 ± 0.15.
In the case of `COc1ccc(CCc2cc(OC)c(OC)c(OC)c2)cc1O` [Erianin], the “inhibition of growth of HL-60 cells” value [3] is given as “significantly inhibited”, the tumor inhibitory rate (liver cancer of mouse) is given as 50.82% and the Death [1] is given as “no death occurred”. For the same compound, the “General condition of the mice (signs of toxicity)” value [1] was “normal appetite, bright hair and free movements”, the toxic side effect [4] was “far lower than 5FU” and the Tumor inhibiting rate (Lewis lung cancer; 50 mg/kg i.p. x 10 qd) was 38.8%. For the same compound, the Tumor weight (Lewis lung cancer; 50 mg/kg i.p. x 10 qd) was 1.59 ± 0.26, the Tumor inhibiting rate (Lewis lung cancer; 100 mg/kg i.p. x 10 qd) was 46.0% and the Tumor weight (Lewis lung cancer; 100 mg/kg i.p. x 10 qd) was 1.40 ± 0.31. The Tumor inhibiting rate (Lewis lung cancer; 200 mg/kg i.p. x 10 qd) was 55.6%, the Tumor weight (Lewis lung cancer; 200 mg/kg i.p. x 10 qd) was 1.15 ± 0.14 and the “Result assessment of tumor inhibiting effect” value (Lewis lung cancer; mice bearing Lewis lung cancer, in words) was “quite effective”. The “inhibitory effect on the growth of tumor cell strain K256” value (tumor cell strain K256) was “most active”.
